{"source": "patent US20230255921A1", "about": "“COMPOSITION FOR TREATING KCA3.1 CHANNEL-MEDIATED DISEASES COMPRISING PHENYLALKYL CARBAMATE COMPOUND” (CEL[…], priority 2020, published 2023)", "key": {"[1]": {"tested_on": "liver fibrosis induced by a CDAHFD diet", "test": "CDAHFD diet-induced liver fibrosis mouse model", "type": "in vivo, C57BL/6 wild-type mice", "conditions": "CDAHFD+SF-2 vs CDAHFD group, 100 mg/kg/day five times a week, 16 weeks", "procedure": "(§1) To confirm the therapeutic effect of the SF-2 compound of the present invention on liver inflammation and fibrosis, an experiment was performed as follows. First, C57BL/6 wild-type mice (purchased from Orient Bio) were divided into three groups of 6 to 8, and used as a disease-induced group, a drug-administered group, and a normal control. The test mice for each group were treated as follows.\n(1) Drug-induced group: Test mice were fed a CDAHFD diet (choline deficient, L-amino-acid-defined, high-fat diet with 0.1% methionine. A06071302, Research Diets, New Brunswick, N.J.) to induce fatty liver disease and fibrosis. In addition, the same amount of distilled water as that of the SF-2 compound administered to the following drug-administered group five times a week using a zonde (oral tube). In the accompanying drawing, CDAHFD indicates the disease-induced group.\n(2) Drug-administered group: The SF-2 compound of the present invention, together with the CDAHFD diet, was administered (100 mg/kg/day) to test mice five times a week. In the accompanying drawing, CDAHFD+SF-2 indicates the drug-administered group.\n(3) Normal control: Test mice were fed a normal diet. In addition, the same amount of distilled water as that of the SF-2 compound was administered to the drug-administered group five times a week using a zonde (oral tube). In the accompanying drawing, C or Control indicates the normal group.\nThe mouse models for each group were treated with drugs for 16 weeks in the same way as described above and immediately killed by administering an excess of an anesthetic, and then the livers were extracted and used in the subsequent test.\n(§2) The lung and liver tissues extracted from the mouse model were fixed with a paraformaldehyde solution, and cut to a thickness of 1 to 2 mm. The cut tissue was embedded in paraffin and cut to a thickness of 4 μm, the paraffin was removed with xylene, the xylene was removed with ethanol, and the resultant was washed with tap water, thereby obtaining a paraffinized tissue specimen.\n(§3) Tissue immunohistochemistry for collagen, which is a fibrotic marker, in the lung and liver tissues, was performed by Masson's trichrome staining.\n(§4) The degrees of mRNA expression of pro-inflammatory or pro-fibrotic agents in lung and liver tissues extracted from the mouse models were measured by real time PCR. RNAs of these tissues were isolated using a TRIzol reagent (Molecular Research Center. Cincinnati, Ohio), and single-stranded cDNA was synthesized using BcaBEST polymerase (Takara Shuzo), followed by performing PCR."}, "KCa3.1 channel": {"target": "KCa3.1 channel (Mus musculus, UniProt O89109)", "sequence (O89109 whole entry)": "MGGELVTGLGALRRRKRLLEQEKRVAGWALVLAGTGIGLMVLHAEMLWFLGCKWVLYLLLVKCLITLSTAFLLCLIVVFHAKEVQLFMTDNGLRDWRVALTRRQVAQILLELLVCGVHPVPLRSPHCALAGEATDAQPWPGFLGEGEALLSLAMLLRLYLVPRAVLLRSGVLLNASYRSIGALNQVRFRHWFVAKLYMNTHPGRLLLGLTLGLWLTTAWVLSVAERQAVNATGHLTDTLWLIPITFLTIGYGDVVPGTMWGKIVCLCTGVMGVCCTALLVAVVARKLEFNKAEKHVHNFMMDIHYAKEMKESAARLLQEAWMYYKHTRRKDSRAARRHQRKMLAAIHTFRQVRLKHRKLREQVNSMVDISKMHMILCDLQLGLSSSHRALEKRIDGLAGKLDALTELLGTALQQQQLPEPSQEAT", "test": "Whole-cell patch-clamp KCa3.1 current in cultured fibroblasts", "type": "cell-based", "design": "host or cells: fibroblasts (ATCC CRL-2795)", "conditions": "FIG. 1 and FIG. 2", "procedure": "Fibroblasts (CRL-2795: American Type Culture Collection, VA) were cultured in Dulbecco's Modified Eagle Medium (Hyclone, Logan, Utah). All cells were maintained in 5% CO2 under a humid condition at 37° C. The cultured fibroblasts were exposed to pro-inflammatory agents such as lipopolysaccharides (LPS) and a pro-fibrotic agent TGFβ, and the compounds of Chemical Formulas 2 to 8 of the present invention (hereinafter, referred to as SF-2 to SF-8 compounds) for 24 hours, and then anti-inflammatory and anti-fibrotic effects were tested.\nWhole cell current through the cell membrane in isolated and cultured single fibroblasts was measured using a patch-clamp technique. A voltage ramp was used to apply voltage to whole-cell voltage clamp cells from −100 mV to +100 mV using a micro-glass electrode, the generated current was amplified using an amplifier (EPC-10, HEKA, Lambrecht, Germany) and then recorded at a sampling rate of 1 to 4 kHz. […]\nKCa3.1 current was isolated using the following method. Ina current recorded by injecting 1 μM Ca^2+ into whole-cell voltage clamp cells using a glass electrode and applying 1-ethyl-2-benzimidazolinone (1-EBIO, 100 μM) activating KCa3.1 current, a current inhibited by KCa3.1 channel inhibitor TRAM-34 (10 μM) was determined as the KCa3.1 current, and the recorded current was normalized by division by cell capacitance."}, "[2]": {"tested_on": "lung fibrosis induced by bleomycin", "test": "Bleomycin-induced lung fibrosis mouse model", "type": "in vivo, C57BL/6 wild-type mice", "conditions": "BLM+SF-2 vs BLM group", "procedure": "as §1, with “the” for “the therapeutic”, “compound according to” for “compound of”, “on the inhibition of” for “on liver inflammation and”, “follows. First.” for “follows. First,”\n(1) Disease-induced group: Lung fibrosis was induced by injecting 1.5 units of bleomycin into the airways of test mice. In addition, the same amount of distilled water as the SF-2 compound administered to the following drug-administered group was intraperitoneally injected (100 mg/kg) 5 times a week. In the accompanying drawing, bleomycin (BLM) refers to this disease-induced group.\n(2) Drug-administered group: 1.5 units of bleomycin was injected into the airways of test mice, and then the SF-2 compound of the present invention was intraperitoneally injected (100 mg/kg) five times a week. In the accompanying drawing, BLM+SF-2 indicates the drug-administered group.\n(3) Normal control: The same amount of distilled water as that of bleomycin injected into the disease-induced group was injected into the airways. In addition, the same amount of distilled water as that of the SF-2 compound administered to the drug-administered group was intraperitoneally injected five times a week. In the accompanying drawing, C or Control indicates the normal group.\nThe mouse models for each group were treated with drugs for 4 weeks in the same way as described above and immediately killed by administering an excess of an anesthetic, and then the lungs were extracted and used in the subsequent test.\nas §2, §3, §4"}, "[3]": {"conditions": "lung tissue, 100 mg/kg intraperitoneal five times a week, 4 weeks, FIG. 6"}}, "note": "Counter-ions that a name gives are not always drawn."}
{"smiles": "NC(=O)OC[C@H](N)Cc1ccccc1", "note": "[SF-2, (R)-2-amino-3-phenyl propylcarbamate hydrochloride]", "values": [{"measurement": "degree of blue staining of the liver tissue (Masson's trichrome, collagen fiber)", "setting": "[1]; FIG. 7", "result": "greatly decreased"}, {"measurement": "mRNA expression level of Col1α", "setting": "[1]; FIG. 8", "result": "greatly decreased"}, {"measurement": "mRNA expression level of Col3α", "setting": "[1]; FIG. 8", "result": "greatly decreased"}, {"measurement": "mRNA expression level of α-SMA", "setting": "[1]; FIG. 8", "result": "greatly decreased"}, {"measurement": "KCa3.1 current activated by Ca2+ and 1-EBIO in cells", "setting": "KCa3.1 channel", "result": "inhibited by SF-2 in a concentration-dependent manner"}, {"measurement": "fibrosis degree, Masson's trichrome staining of lung tissue", "setting": "[2]; intraperitoneal five times a week for 4 weeks, FIG. 5", "result": "decreased"}, {"measurement": "mRNA expression level of Col1α", "setting": "[2]; [3]", "result": "greatly decreased"}, {"measurement": "mRNA expression level of Col3α", "setting": "[2]; [3]", "result": "greatly decreased"}, {"measurement": "mRNA expression level of α-SMA", "setting": "[2]; [3]", "result": "greatly decreased"}]}
